Legend:
[1] = biological target: T1, MTHFD2 recombinant human enzyme (Homo sapiens, UniProt P13995); assay: MTHFD2 inhibition assay (NAD(P)H-Glo luminescence); conditions: for MTHFD1/MTHFD2 IC50 ratio: selectivity of MTHFD2 inhibition over MTHFD1, band
T1 sequence (P13995 36-350): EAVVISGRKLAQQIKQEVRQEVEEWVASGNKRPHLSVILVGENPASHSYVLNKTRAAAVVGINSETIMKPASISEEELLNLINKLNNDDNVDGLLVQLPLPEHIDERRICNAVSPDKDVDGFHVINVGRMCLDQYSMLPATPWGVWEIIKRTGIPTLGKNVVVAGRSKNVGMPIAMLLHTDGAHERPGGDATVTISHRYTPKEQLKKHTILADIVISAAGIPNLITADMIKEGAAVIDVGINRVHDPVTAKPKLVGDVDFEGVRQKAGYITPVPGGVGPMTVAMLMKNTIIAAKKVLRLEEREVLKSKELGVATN

[2] = biological target: T2, MTHFD1 recombinant human enzyme (Homo sapiens, UniProt P11586); assay: MTHFD1 inhibition assay (NAD(P)H-Glo luminescence); conditions: MTHFD1 IC50, recombinant human enzyme 200 nM, NADP, band
T2 sequence (P11586 2-291 limits assumed): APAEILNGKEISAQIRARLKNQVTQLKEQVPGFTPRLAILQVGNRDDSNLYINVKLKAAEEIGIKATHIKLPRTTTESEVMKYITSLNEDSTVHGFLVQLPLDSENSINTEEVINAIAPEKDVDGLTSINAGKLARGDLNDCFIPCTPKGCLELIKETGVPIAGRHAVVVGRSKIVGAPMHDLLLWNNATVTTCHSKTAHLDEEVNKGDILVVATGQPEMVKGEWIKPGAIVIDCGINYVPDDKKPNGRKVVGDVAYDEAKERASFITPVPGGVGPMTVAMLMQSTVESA

Row | SMILES | IC50 [1] | MTHFD1/MTHFD2 IC50 ratio [1] | IC50 [2]
1 | CCOc1c(C(=O)NS(=O)(=O)N(C)C)ccc(C(=O)N2CCc3c(c(=O)oc4c(C)c(N5CCN(C)[C@@H](COC)C5)cc(C)c34)C2)c1F [Example 146, (R)-N-(N,N-dimethylsulfamoyl)-2-ethoxy-3-fluoro-4-(8-(3-(methoxymethyl)-4-methylpiperazin-1-yl)-7,10-dimethyl-5-oxo-1,3,4,5-tetrahydro-2H-chromeno[3,4-c]pyridine-3-carbonyl)benzamide] | 1 to 10 nM | F (<3) | 10 to 100 nM
2 | COC[C@H]1CN(c2ccc3c4c(c(=O)oc3c2C)CN(C(=O)c2cc(Cl)c(C(=O)NS(=O)(=O)N3CCCC3)c(N3CC5CC5C3)c2)CC4)CCN1C (stereo partly drawn) [Example 105, 2-(3-azabicyclo[3.1.0]hexan-3-yl)-6-chloro-4-(8-((R)-3-(methoxymethyl)-4-methylpiperazin-1-yl)-7-methyl-5-oxo-1,3,4,5-tetrahydro-2H-chromeno[3,4-c]pyridine-3-carbonyl)-N-(pyrrolidin-1-ylsulfonyl)benzamide] | 100 to 1000 nM | G (^ 3 to 9.0) | 100 to 1000 nM
3 | COC[C@H]1CN(c2ccc3c4c(c(=O)oc3c2C)CN(C(=O)c2ccc(C(=O)NS(=O)(=O)C3(C)CC3)c(O[C@@H]3C[C@@H]5C[C@@H]5C3)c2F)CC4)CCN1C [Example 59, 2-(((1R,3r,5S)-bicyclo[3.1.0]hexan-3-yl)oxy)-3-fluoro-4-(8-((R)-3-(methoxymethyl)-4-methylpiperazin-1-yl)-7-methyl-5-oxo-1,3,4,5-tetrahydro-2H-chromeno[3,4-c]pyridine-3-carbonyl)-N-((1-methylcyclopropyl)sulfonyl)benzamide] | 1 to 10 nM | F (<3) | 1 to 10 nM
4 | COC[C@H]1CN(c2cc(C)c3c4c(c(=O)oc3c2C)CN(C(=O)c2ccc(C(=O)NS(=O)(=O)C3(C)CC3)c(N3CCC(F)(F)C3)c2)CC4)CCN1C [Example 81, (R)-2-(3,3-difluoropyrrolidin-1-yl)-4-(8-(3-(methoxymethyl)-4-methylpiperazin-1-yl)-7,10-dimethyl-5-oxo-1,3,4,5-tetrahydro-2H-chromeno[3,4-c]pyridine-3-carbonyl)-N-((1-methylcyclopropyl)sulfonyl)benzamide] | 1 to 10 nM |  | 10 to 100 nM
5 | COC[C@H]1CN(c2cc(C)c3c4c(c(=O)oc3c2C)CN(C(=O)c2ccc(C(=O)NS(=O)(=O)N3C5CCC3CC5)c(OC3CC3)c2F)CC4)CCN1C [Example 213, (R)-N-((7-azabicyclo[2.2.1]heptan-7-yl)sulfonyl)-2-cyclopropoxy-3-fluoro-4-(8-(3-(methoxymethyl)-4-methylpiperazin-1-yl)-7,10-dimethyl-5-oxo-1,3,4,5-tetrahydro-2H-chromeno[3,4-c]pyridine-3-carbonyl)benzamide] | 1 to 10 nM | G (^ 3 to 9.0) | 10 to 100 nM
6 | COC[C@H]1CN(c2cc(C)c3c4c(c(=O)oc3c2C)CN(C(=O)c2ccc(C(=O)NS(=O)(=O)N(C)C)c(OC3C[C@@H]5C[C@@H]5C3)c2)CC4)CCN1C (mixture of isomers) [Example 108, 2-(bicyclo[3.1.0]hexan-3-yloxy)-N-(N,N-dimethylsulfamoyl)-4-(8-((R)-3-(methoxymethyl)-4-methylpiperazin-1-yl)-7,10-dimethyl-5-oxo-1,3,4,5-tetrahydro-2H-chromeno[3,4-c]pyridine-3-carbonyl)benzamide] | 10 to 100 nM | F (<3) | 10 to 100 nM

The next lines start with the values.

Row | IC50 [1] | MTHFD1/MTHFD2 IC50 ratio [1] | IC50 [2] | SMILES
7 | 1 to 10 nM | F (<3) | 1 to 10 nM | COC[C@H]1CN(c2ccc3c4c(c(=O)oc3c2Cl)CN(C(=O)c2ccc(C(=O)NS(=O)(=O)N(C)C)c(O[C@@H]3C[C@@H]5C[C@@H]5C3)c2F)CC4)CCN1C [Example 61, 2-(((1R,3r,5S)-bicyclo[3.1.0]hexan-3-yl)oxy)-4-(7-chloro-8-((R)-3-(methoxymethyl)-4-methylpiperazin-1-yl)-5-oxo-1,3,4,5-tetrahydro-2H-chromeno[3,4-c]pyridine-3-carbonyl)-N-(N,N-dimethylsulfamoyl)-3-fluorobenzamide]
8 | 10 to 100 nM | J (>30) | 100 to 1000 nM | COC[C@H]1CN(c2ccc3c4c(c(=O)oc3c2C)CN(C(=O)c2cc(Cl)c(C(=O)NS(=O)(=O)C3(C)CC3)c(N3CC5CC5C3)c2)CC4)CCN1C (stereo partly drawn) [Example 32, 2-(3-azabicyclo[3.1.0]hexan-3-yl)-6-chloro-4-(8-((R)-3-(methoxymethyl)-4-methylpiperazin-1-yl)-7-methyl-5-oxo-1,3,4,5-tetrahydro-2H-chromeno[3,4-c]pyridine-3-carbonyl)-N-((1-methylcyclopropyl)sulfonyl)benzamide]
9 | 10 to 100 nM | H (>9.0 to 30) | 100 to 1000 nM | COC[C@H]1CN(c2cc(Cl)c3c4c(c(=O)oc3c2C)CN(C(=O)c2cc(N(C)C)c(C(=O)NS(=O)(=O)N3CCC5(CC5)C3)cc2F)CC4)CCN1C [Example 274, (R)-N-((5-azaspiro[2.4]heptan-5-yl)sulfonyl)-4-(10-chloro-8-(3-(methoxymethyl)-4-methylpiperazin-1-yl)-7-methyl-5-oxo-1,3,4,5-tetrahydro-2H-chromeno[3,4-c]pyridine-3-carbonyl)-2-(dimethylamino)-5-fluorobenzamide]
10 | 1 to 10 nM | F (<3) | 1 to 10 nM | COC[C@H]1CN(c2ccc3c4c(c(=O)oc3c2C)CN(C(=O)c2cc(F)c(C(=O)NS(=O)(=O)N(C)C)c(N3CC5CC5C3)c2)CC4)CCN1C (stereo partly drawn) [Example 27, 2-(3-azabicyclo[3.1.0]hexan-3-yl)-N-(N,N-dimethylsulfamoyl)-6-fluoro-4-(8-((R)-3-(methoxymethyl)-4-methylpiperazin-1-yl)-7-methyl-5-oxo-1,3,4,5-tetrahydro-2H-chromeno[3,4-c]pyridine-3-carbonyl)benzamide]
11 | 10 to 100 nM | F (<3) | 10 to 100 nM | COC[C@H]1CN(c2cc(C)c3c4c(c(=O)oc3c2C)CN(C(=O)c2cc(OC3CCCC3)c(C(=O)NS(=O)(=O)N(C)C)cc2F)CC4)CCN1C [Example 110, (R)-2-(cyclopentyloxy)-N-(N,N-dimethylsulfamoyl)-5-fluoro-4-(8-(3-(methoxymethyl)-4-methylpiperazin-1-yl)-7,10-dimethyl-5-oxo-1,3,4,5-tetrahydro-2H-chromeno[3,4-c]pyridine-3-carbonyl)benzamide]
12 | 1 to 10 nM | G (^ 3 to 9.0) | 10 to 100 nM | COC[C@H]1CN(c2cc(C)c3c4c(c(=O)oc3c2C)CN(C(=O)c2ccc(C(=O)NS(=O)(=O)N(C)C)c(N(C)C3CC3)c2)CC4)CCN1C [Example 84, (R)-2-(cyclopropyl(methyl)amino)-N-(N,N-dimethylsulfamoyl)-4-(8-(3-(methoxymethyl)-4-methylpiperazin-1-yl)-7,10-dimethyl-5-oxo-1,3,4,5-tetrahydro-2H-chromeno[3,4-c]pyridine-3-carbonyl)benzamide]
13 | 1 to 10 nM | F (<3) | 1 to 10 nM | COC[C@H]1CN(c2cc(C)c3c4c(c(=O)oc3c2C)CN(C(=O)c2ccc(C(=O)NS(=O)(=O)N(C)C)c(OC3CCCC3)c2F)CC4)CCN1C [Example 43, (R)-2-(cyclopentyloxy)-N-(N,N-dimethylsulfamoyl)-3-fluoro-4-(8-(3-(methoxymethyl)-4-methylpiperazin-1-yl)-7,10-dimethyl-5-oxo-1,3,4,5-tetrahydro-2H-chromeno[3,4-c]pyridine-3-carbonyl)benzamide]

— patent publication US12662489B2 (Sitryx Therapeutics Limited, priority 2023, dated 2026)
